For data set [1], the system named is NCC01 cells. The data set can be described thus: Apoptosis induction activity, FACS, NCC01 cells. The note with it: 100 nM, after 1 day. Format: cell-based, human (brain-tumor-patient-derived cell line). The method, then:
In order to evaluate whether apoptosis of brain tumor cells is induced by inhibiting LRRK2 protein phosphorylation, an experiment was conducted using FACS (fluorescence-activated cell sorting).
More specifically, 7.5x10^5 to 1.0x10^6 NCC01 cells were treated with the compound of each of Examples 11, 12 and 21 at a concentration of 100 nM, and after 1 day, samples were collected and subjected to FACS, thus assaying the apoptosis induction activity. The group not treated with the compound of Example was used as a control.

The target in data set [2] is T1, LRRK2 protein (Homo sapiens, UniProt Q5S007).
T1 construct: endogenous in cells; host or cells: NCC01 (brain-tumor-patient-derived cell line)
T1 sequence (Q5S007 whole entry): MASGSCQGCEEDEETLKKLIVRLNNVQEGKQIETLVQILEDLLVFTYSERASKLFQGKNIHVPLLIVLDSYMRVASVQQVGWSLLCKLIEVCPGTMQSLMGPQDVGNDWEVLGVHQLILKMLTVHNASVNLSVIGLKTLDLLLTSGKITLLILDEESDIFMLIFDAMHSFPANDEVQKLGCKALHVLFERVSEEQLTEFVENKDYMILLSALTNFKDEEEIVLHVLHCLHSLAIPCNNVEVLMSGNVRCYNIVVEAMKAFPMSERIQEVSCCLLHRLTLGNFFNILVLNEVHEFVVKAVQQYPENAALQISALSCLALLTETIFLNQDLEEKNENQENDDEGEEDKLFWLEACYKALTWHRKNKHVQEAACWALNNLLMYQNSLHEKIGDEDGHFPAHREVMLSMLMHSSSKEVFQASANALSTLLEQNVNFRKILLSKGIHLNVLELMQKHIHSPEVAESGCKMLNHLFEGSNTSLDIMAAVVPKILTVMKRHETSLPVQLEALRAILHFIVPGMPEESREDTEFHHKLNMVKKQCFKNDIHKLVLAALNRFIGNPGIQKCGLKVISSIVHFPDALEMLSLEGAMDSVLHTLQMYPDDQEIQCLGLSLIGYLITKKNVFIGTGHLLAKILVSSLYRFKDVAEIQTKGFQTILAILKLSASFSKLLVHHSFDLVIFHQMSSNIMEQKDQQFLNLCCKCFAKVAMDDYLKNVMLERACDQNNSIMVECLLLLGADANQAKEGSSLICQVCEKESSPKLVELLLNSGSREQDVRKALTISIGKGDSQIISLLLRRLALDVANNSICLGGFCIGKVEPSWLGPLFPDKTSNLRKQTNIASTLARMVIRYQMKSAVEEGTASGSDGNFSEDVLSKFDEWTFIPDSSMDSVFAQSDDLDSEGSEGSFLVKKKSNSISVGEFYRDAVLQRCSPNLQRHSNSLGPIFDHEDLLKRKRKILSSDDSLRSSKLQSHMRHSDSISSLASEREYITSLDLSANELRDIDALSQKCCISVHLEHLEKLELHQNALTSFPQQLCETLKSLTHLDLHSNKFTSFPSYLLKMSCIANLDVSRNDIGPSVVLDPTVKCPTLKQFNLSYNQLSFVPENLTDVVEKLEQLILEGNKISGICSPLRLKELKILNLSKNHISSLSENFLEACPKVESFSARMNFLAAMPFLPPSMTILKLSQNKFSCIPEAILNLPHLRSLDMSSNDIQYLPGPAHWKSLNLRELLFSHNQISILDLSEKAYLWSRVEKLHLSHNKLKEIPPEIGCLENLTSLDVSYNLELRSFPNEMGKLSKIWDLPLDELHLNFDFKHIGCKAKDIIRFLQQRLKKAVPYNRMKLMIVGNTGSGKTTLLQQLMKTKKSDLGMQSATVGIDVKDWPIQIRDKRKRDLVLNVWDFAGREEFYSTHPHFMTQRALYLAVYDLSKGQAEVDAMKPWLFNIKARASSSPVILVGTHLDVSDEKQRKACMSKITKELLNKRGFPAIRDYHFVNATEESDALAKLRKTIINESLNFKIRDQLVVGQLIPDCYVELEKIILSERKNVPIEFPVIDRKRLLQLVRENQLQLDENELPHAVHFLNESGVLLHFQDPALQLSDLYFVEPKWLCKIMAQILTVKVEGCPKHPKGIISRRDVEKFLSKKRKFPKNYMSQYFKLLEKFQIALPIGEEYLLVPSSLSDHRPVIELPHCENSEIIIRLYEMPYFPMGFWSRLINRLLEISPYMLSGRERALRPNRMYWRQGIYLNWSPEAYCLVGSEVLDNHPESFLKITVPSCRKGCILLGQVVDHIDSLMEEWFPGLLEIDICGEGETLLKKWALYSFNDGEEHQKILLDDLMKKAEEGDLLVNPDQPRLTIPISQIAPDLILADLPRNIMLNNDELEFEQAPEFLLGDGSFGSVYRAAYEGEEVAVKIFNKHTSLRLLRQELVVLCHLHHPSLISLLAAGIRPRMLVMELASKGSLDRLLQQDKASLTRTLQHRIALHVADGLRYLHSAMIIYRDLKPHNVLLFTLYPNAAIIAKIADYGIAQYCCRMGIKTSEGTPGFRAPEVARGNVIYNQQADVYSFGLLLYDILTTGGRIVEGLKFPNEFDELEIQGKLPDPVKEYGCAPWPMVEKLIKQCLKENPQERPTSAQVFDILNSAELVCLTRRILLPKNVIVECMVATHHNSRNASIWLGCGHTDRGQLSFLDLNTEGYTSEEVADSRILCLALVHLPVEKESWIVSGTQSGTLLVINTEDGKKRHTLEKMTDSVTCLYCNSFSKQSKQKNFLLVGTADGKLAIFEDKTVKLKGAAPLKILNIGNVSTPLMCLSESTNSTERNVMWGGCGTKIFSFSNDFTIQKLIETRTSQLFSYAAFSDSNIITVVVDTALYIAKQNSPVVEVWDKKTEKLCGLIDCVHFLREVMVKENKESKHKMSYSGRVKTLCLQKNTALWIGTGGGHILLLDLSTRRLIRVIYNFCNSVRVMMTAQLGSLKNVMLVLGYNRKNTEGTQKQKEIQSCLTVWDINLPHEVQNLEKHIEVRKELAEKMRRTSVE
Kind of data set: LRRK2 protein phosphorylation inhibitory activity, Western blotting, 448T cells. The settings on record: after 1 day. Type of data set: cell-based, human (brain-tumor-patient-derived cell line). The method, then:
An experiment was conducted in order to evaluate the in-vitro drug efficacy of the compound of Comparative Example, known as an LRRK2 protein inhibitor.
Background: A western blot detects proteins with antibodies after separation by electrophoresis.

In data set [3] the target is T1, LRRK2 protein. Kind of data set: LRRK2 protein phosphorylation inhibitory activity, Western blotting, NCC01 cells. Format: cell-based, human (brain-tumor-patient-derived cell line). The note with it: after 1 day. Here is the method: In order to evaluate drug efficacy in vitro, a Western blotting experiment was performed using brain-tumor-patient-derived cell line NCC01 cells.
(§1) Here, the group not treated with the compound of Example was used as a vehicle.
as §1
Here, the group not treated with the compound of Example was used as a vehicle. […]
More specifically, 7.5x10^5 to 1.0x10^6 cells were treated with the compound of Comparative Example at a concentration of 0.1 or 1.0 µM, and after 1 day, samples were collected and evaluated for LRRK2 protein phosphorylation inhibitory activity through Western blotting. Here, the group not treated with the compound of Example was used as a vehicle.

For data set [4], the system named is NCC01 cells. The data set can be described thus: Sphere size under hypoxic conditions with shRNA against the LRRK2 gene, NCC01 cells. The note with it: NCC01 cells exposed to hypoxic conditions. Format: cell-based, human (brain-tumor-patient-derived cell line). Here is the method: (§2) Specifically, NCC01 and 528NS cells were exposed to hypoxic conditions and treated with two kinds of shRNA against the LRRK2 gene, after which changes in the size of spheres were measured. Here, a control was shRNA (shNT) against luciferase.

The test system of data set [5] is 528NS cells. Kind of data set: Sphere size under hypoxic conditions with shRNA against the LRRK2 gene, 528NS cells. The note with it: 528NS cells exposed to hypoxic conditions. Type of data set: cell-based. The method, then:
as §2

For data set [6], the system named is 448T cells. The data set can be described thus: Growth inhibitory activity on brain tumor cells in animal model, 448T cells injected into the brain. Type of data set: in vivo, Balb/c-nude mouse. The settings on record: orally, 60 mg/kg. The method, then: (§3) More specifically, 1.0x10^4 NCC01 cells, a brain-tumor-patient-derived cell line, were injected into the brain of a Balb/c-nude mouse model, and after 3 days, the compound of Example 12 was orally administered at a dose of 10 mg/kg or 60 mg/kg. After administration of the compound, the survival rate of the mice based on the survival period was determined, and the size of the tumors generated in the mice was measured using MRI. Here, the group not treated with the compound of Example was used as a vehicle.
Specifically, the experiment was conducted in the same manner under the same conditions as in Experimental Example 14, with the exception that 448T cells were used in lieu of NCC01 cells, and the compound of each of Examples 12, 20 and 21 was orally administered at a dose of 60 mg/kg.

Data set [7] has as its system NCC01 cells. Kind of data set: Mitochondrial function, TMRE staining of activated mitochondria, NCC01 cells. The settings on record: after 1 day. Format: cell-based, human (brain-tumor-patient-derived cell line). The method, then: Specifically, NCC01 cells were treated with the compound of Example 12 at 1 µM, and after 1 day, TMRE (tetramethylrhodamine ethylester) dye for staining activated mitochondria was added thereto to evaluate changes in mitochondrial function. Here, the group not treated with the compound of Example was used as a control.
Specifically, brain tumor stem cell line NCC01 cells were treated with the compound of Example 12 at a concentration of 0.1 or 1 µM, and after 1 day, the mitochondria were stained as described in Experimental Example 9 to assay changes in the function thereof. Here, the group not treated with the compound of Example was used as a vehicle.

The test system of data set [8] is NCC01 cells. Kind of data set: Growth inhibitory activity on brain tumor cells in animal model, NCC01 cells injected into the brain. Type of data set: in vivo, Balb/c-nude mouse. The note with it: orally. Here is the method:
as §3

Data set [9] concerns the target T1, LRRK2 protein. The data set can be described thus: LRRK2 protein phosphorylation inhibitory activity, Western blotting, NCC01 cells. Format: cell-based, human (brain-tumor-patient-derived cell line). The note with it: for LRRK2 protein phosphorylation: after 1 day.
For data set [10], the system named is U87MG cells. The data set can be described thus: Therapeutic effect on brain tumor upon co-administration with Avastin, U87MG orthotopic mouse model. Format: in vivo, Balb/c-nude mice. The note with it: Example 12 orally 30 mg/kg in combination with Avastin intraperitoneally 10 mg/kg, vs Avastin. Here is the method: More specifically, orthotopic mouse models were manufactured using 5-week-old Balb/c-nude mice. U87MG cells (ATCC, USA), a brain tumor cell line, were injected 3.5 mm deep at a position 2.2 mm to the left of and 0.5 mm behind the bregma using a stereotaxic device. 3 days after injection of the cells, mice were divided into three groups of 5 mice per group (a control (vehicle), a group administered with Avastin, and a group administered with the compound of Example 12 and Avastin), and the drug was administered thereto. The compound of Example 12 was orally administered at a dose of 30 mg/kg and Avastin was injected intraperitoneally at a dose of 10 mg/kg.

Data set [11] deals with NESTIN protein. The data set can be described thus: Expression of NESTIN protein (cancer stem cell marker), Western blotting, NCC01 cells. The settings on record: 50 to 2,000 nM, after 1 day. Type of data set: cell-based, human (brain-tumor-patient-derived cell line). Here is the method: More specifically, 1.0x10^6 NCC01 cells were treated with the compound of Example 12 at concentrations of 50, 100, 500, 1,000 and 2,000 nM. After 1 day, samples were collected and the expression of NESTIN protein, which is a cancer stem cell marker involved in the intracellular signaling pathway, was measured through Western blotting. Here, the group not treated with the compound of Example was used as a vehicle.

Data set [12] concerns TRAP1 (TNF receptor associated protein 1). Kind of data set: TRAP1 expression, Western blotting, brain tumor stem cell line NCC01. Type of data set: cell-based, human (brain-tumor-patient-derived cell line). The settings on record: NCC01 cells, 100 or 1,000 nM, after 1 day. The method, then:
Specifically, brain tumor stem cell line NCC01 cells were added with the compound of Example 12 at a concentration of 100 or 1,000 nM, and after 1 day, changes in the expression of TRAP1 were measured through Western blotting. Here, the group not treated with the compound of Example was used as a vehicle.

[13] abbreviates: 100 or 1,000 nM, compared to the vehicle.

Turning to `CCNc1nc(Nc2cc(F)c(C(=O)N3CCOCC3)cc2OC)ncc1C(F)(F)F` [Example 11, (4-(4-(Ethylamino)-5-(Trifluoromethyl)Pyrimidin-2-Ylamino)-2-Fluoro-5-Methoxyphenyl) (Morpholino)Methanone], the “apoptosis of NCC01 cells” value in data set [1] was “induced”. The LRRK2 protein phosphorylation entry in data set [2] (setting [13]) and in data set [3] (setting [13]) was “significantly inhibited” throughout.

Regarding `Cn1cc(-c2c[nH]c3ncnc(N4CCOCC4)c23)cc1C#N` [Example 22, 1-Methyl-4-(4-Morpholino-7H-Pyrrolo[2,3-d]Pyrimidin-5-yl)-1H-Pyrrole-2-Carbonitrile], the LRRK2 protein phosphorylation entry in [3] (setting [13]) is “significantly inhibited”.

`COc1cc(C(=O)N2CCC(N3CCN(C)CC3)CC2)ccc1Nc1ncc2c(n1)N(C)c1ccccc1C(=O)N2C` [Example 10, 2-[(2-Methoxy-4-[[4-(4-Methylpiperazin-1-yl)Piperidin-1-yl]Carbonyl]Phenyl)Amino]-5,11-Dimethyl-5,11-Dihydro-6H-Pyrimido[4,5-b][1,4]Benzodiazepin-6-One]: the LRRK2 protein phosphorylation entry in [2] (setting [13]) and in [3] (setting [13]) was “significantly inhibited” in each case. Also, the “phosphorylated LRRK2 protein” value in data set [3] (concentration of 100 nM) is on record as “detected”.

For “LRRK2 shRNA-2: shRNA against the LRRK2 gene, SEQ ID NO: 34 (CCGGCCCAAATTGGTGGAACTCTTACTCGAGTAAGAGTTCCACCAATTTGGGTTTTT)”, the sphere size entry in data set [4] and in data set [5] was “suppressed” in each case.

`C[C@@H]1CN(c2cc(-c3n[nH]c4ccc(OC5(C)CC5)cc34)ncn2)C[C@H](C)O1` [Example 20, (2S,6R)-2,6-Dimethyl-4-(6-(5-(1-Methylcyclopropoxy)-1H-Indazol-3-yl)Pyrimidin-4-yl)Morpholine]: in data set [6], the “tumor at the position to which the 448T cells were injected” value was “no tumor was observed”.

On to “LRRK2 shRNA-1: shRNA against the LRRK2 gene, SEQ ID NO: 33 (CCGGCCACAAATTCAACGGAAAGAACTCGAGTTCTTTCCGTTGAATTTGTGGTTTTT)”, for which the sphere size result in [4] and in data set [5] was “suppressed” each time.

As to `CNc1nc(Nc2cn(C(C)(C)C#N)nc2C)ncc1C(F)(F)F` [Comparative Example, 2-Methyl-2-[3-Methyl-4-[[4-(Methylamino)-5-(Trifluoromethyl)Pyrimidin-2-yl]Amino]Pyrazol-1-yl]Propanenitrile, reference compound], the LRRK2 protein phosphorylation entry in [2] (0.1 or 1.0 µM, Examples stated by contrast ('unlike' = inhibited)) is recorded as “did not inhibit”; in data set [3] (0.1 or 1.0 µM), “did not inhibit”.

On to `CNc1nc(Nc2ccc(C(=O)N3CCOCC3)cc2OC)ncc1C(F)(F)F` [Example 12, (3-Methoxy-4-(4-(Methylamino)-5-(Trifluoromethyl)Pyrimidin-2-Ylamino)Phenyl)(Morpholino)Methanone], for which the “fragmentation of nuclei in the cells” value in data set [7] (1 µM) is listed as “occurred”. In addition, the “degree of color development of the TMRE dye” value in data set [7] (1 µM, vs control) is listed as “decreased”. In [7] (0.1 or 1 µM, compared to the control), the “activity of the mitochondria present in the brain tumor stem cells” value is given as “inhibited”. Also, the “tumor at the position to which the NCC01 cells were injected (MRI)” value in data set [8] (10 mg/kg or 60 mg/kg) is on record as “no tumor was observed”. Moreover, in data set [8] (10 mg/kg, vehicle 54 days), the “average survival period of the mice” value amounted to 71 days. Further, the “survival of all the mice” value in [8] (60 mg/kg, vehicle average 54 days) is at least 100 days. Besides, in [6], the “tumor at the position to which the 448T cells were injected” value was “no tumor was observed”. Moreover, in [9] (NCC01 cells, 100 nM, starting 1 day after treatment, samples after 1, 4 and 8 days, reduction continued over time), the “extent of LRRK2 protein phosphorylation over time” value was “drastically reduced”. Moreover, the LRRK2 protein phosphorylation entry is listed as “inhibited” in data set [9] (NCC01 cells, 50, 100, 500, 1,000 and 2,000 nM, concentration-dependent); “mostly inhibited” in [9] (NCC01 cells, concentrations of 50 and 100 nM); “significantly inhibited” in data set [2] (setting [13]); “inhibited most” in data set [2] (concentration of 50 nM); “significantly inhibited” in [3] (setting [13]). The “apoptosis of NCC01 cells” value in data set [1] is “induced”. Besides, in data set [1], the “apoptosis rate relative to the compounds of Examples 11 and 21” value was “about 3 times”. For the same molecule, the “therapeutic effect of Avastin on brain tumors (survival)” value in data set [10] is listed as “further significantly increased”. Further, in [11], the “expression of NESTIN protein” value is given as “reducing”. The “expression of TRAP1” value in data set [12] is given as “inhibited”.

Turning to `N#Cc1cccc(-c2c[nH]c3nccc(N4CCOCC4)c23)c1` [Example 21, 3-(4-Morpholino-1H-Pyrrolo[2,3-b]Pyridin-3-yl)Benzonitrile], the “tumor at the position to which the 448T cells were injected” value in data set [6] is given as “no tumor was observed”. In addition, in [1], the “apoptosis of NCC01 cells” value is listed as “induced”. The LRRK2 protein phosphorylation entry in data set [2] (setting [13]) and in data set [3] (setting [13]) was “significantly inhibited” in each case.

For the origin of these results see patent publication US20230248740A1, “Pharmaceutical Composition Comprising Compound Capable of Penetrating Blood-Brain Barrier as Effective Ingredient for Preventing or Treating Brain Cancer” (DAEGU-GYEONGBUK MEDICAL INNOVATION FOUNDATION, priority 2017, published 2023).
